Legend:
[1] = system: PKB Ser473 phosphorylation in Rat1-myr-HA-p110 delta cells; test: Reverse protein array, PKB Ser473 phosphorylation in Rat1-myr-HA-p110 delta cells; assay type: cell-based; settings: Rattus norvegicus, 0.5 h, 30 minutes compound incubation, read-out: p-PKB/IC50_delta
[2] = system: PKB Ser473 phosphorylation in Rat1-myr-HA-p110 beta cells; test: Reverse protein array, PKB Ser473 phosphorylation in Rat1-myr-HA-p110 beta cells; assay type: cell-based; settings: Rattus norvegicus, 0.5 h, 30 minutes compound incubation, read-out: p-PKB/IC50_beta

COc1ncccc1-n1c(=O)n(C)c2cnc3ccc(-c4ccc(F)nc4)cc3c21 [Example 1.8, 8-(6-Fluoro-pyridin-3-yl)-1-(2-methoxy-pyridin-3-yl)-3-methyl-1,3-dihydro-imidazo[4,5-c]quinolin-2-one]
IC50 [1]: 612 nM | IC50 [2]: 324 nM

COc1ccc(-n2c(=O)n(C)c3cnc4ccc(-c5cnc(N)c(C(F)(F)F)c5)cc4c32)c(OC)n1 [Example 8.1, 8-(6-Amino-5-trifluoromethyl-pyridin-3-yl)-1-(2,6-dimethoxy-pyridin-3-yl)-3-methyl-1,3-dihydro-imidazo[4,5-c]quinolin-2-one]
IC50 [1]: 10.7 nM | IC50 [2]: 12.8 nM

CNc1ccc(-c2ccc3ncc4c(c3c2)n(-c2ccc(N(C)CCOC)nc2C)c(=O)n4C)cn1 [Example 15.4, 1-{6-[(2-Methoxy-ethyl)-methyl-amino]-2-methyl-pyridin-3-yl}-3-methyl-8-(6-methylamino-pyridin-3-yl)-1,3-dihydro-imidazo[4,5-c]quinolin-2-one]
IC50 [1]: 31.3 nM | IC50 [2]: 15.1 nM

CCOc1ccc(-c2ccc3ncc4c(c3c2)n(-c2cccnc2OC)c(=O)n4C)cn1 [Example 1.5, 8-(6-Ethoxy-pyridin-3-yl)-1-(2-methoxy-pyridin-3-yl)-3-methyl-1,3-dihydro-imidazo[4,5-c]quinolin-2-one]
IC50 [1]: 59.6 nM | IC50 [2]: 38.8 nM

Cc1ccc(-n2c(=O)n(C)c3cnc4ccc(-c5cnc6c(ccn6C)c5)cc4c32)c(C)n1 [Example 14.7, 1-(2,6-Dimethyl-pyridin-3-yl)-3-methyl-8-(1-methyl-1H-pyrrolo[2,3-b]pyridin-5-yl)-1,3-dihydro-imidazo[4,5-c]quinolin-2-one]
IC50 [1]: 45.4 nM | IC50 [2]: 20.8 nM

CNc1ccc(-c2ccc3ncc4c(c3c2)n(-c2ccc(N3CCCC3)nc2C)c(=O)n4C)cn1 [Example 25.1, 3-Methyl-8-(6-methylamino-pyridin-3-yl)-1-(2-methyl-6-pyrrolidin-1-yl-pyridin-3-yl)-1,3-dihydro-imidazo[4,5-c]quinolin-2-one]
IC50 [1]: 26 nM | IC50 [2]: 10.7 nM

CCOc1ccc(-c2ccc3ncc4c(c3c2)n(-c2cccnc2C)c(=O)n4C)cn1 [Example 2.1, 8-(6-Ethoxy-pyridin-3-yl)-3-methyl-1-(2-methyl-pyridin-3-yl)-1,3-dihydro-imidazo[4,5-c]quinolin-2-one]
IC50 [1]: 96 nM | IC50 [2]: 18.3 nM

Cc1nc(F)ccc1-n1c(=O)n(C)c2cnc3ccc(-c4cnc(N)c(CO)c4)cc3c21 [Example 7.17, 8-(6-Amino-5-hydroxymethyl-pyridin-3-yl)-1-(6-fluoro-2-methyl-pyridin-3-yl)-3-methyl-1,3-dihydro-imidazo[4,5-c]quinolin-2-one]
IC50 [1]: 119 nM | IC50 [2]: 212 nM

CNc1ncc(-c2ccc3ncc4c(c3c2)n(-c2ccc(NC(=O)COC)nc2C)c(=O)n4C)cn1 [Example 20.3, 2-Methoxy-N-{6-methyl-5-[3-methyl-8-(2-methylamino-pyrimidin-5-yl)-2-oxo-2,3-dihydro-imidazo[4,5-c]quinolin-1-yl]-pyridin-2-yl}-acetamide]
IC50 [1]: 218 nM | IC50 [2]: 16.3 nM

COc1cc(-c2ccc3ncc4c(c3c2)n(-c2ccc(N(C)C)nc2C)c(=O)n4C)cnc1CO [Example 19.4, 1-(6-Dimethylamino-2-methyl-pyridin-3-yl)-8-(6-hydroxymethyl-5-methoxy-pyridin-3-yl)-3-methyl-1,3-dihydro-imidazo[4,5-c]quinolin-2-one]
IC50 [1]: 74.5 nM | IC50 [2]: 40.2 nM

Cc1nc(N(C)C)ccc1-n1c(=O)n(C)c2cnc3ccc(-c4cncc(N)c4)cc3c21 [Example 19.5, 8-(5-Amino-pyridin-3-yl)-1-(6-dimethylamino-2-methyl-pyridin-3-yl)-3-methyl-1,3-dihydro-imidazo[4,5-c]quinolin-2-one]
IC50 [1]: 46.4 nM | IC50 [2]: 11.2 nM

CNc1ncc(-c2ccc3ncc4c(c3c2)n(-c2ccc(F)nc2C)c(=O)n4C)cc1C(F)(F)F [Example 7.13, 1-(6-Fluoro-2-methyl-pyridin-3-yl)-3-methyl-8-(6-methylamino-5-trifluoromethyl-pyridin-3-yl)-1,3-dihydro-imidazo[4,5-c]quinolin-2-one]
IC50 [1]: 37.9 nM | IC50 [2]: 7.6 nM

CCNc1cc(-c2ccc3ncc4c(c3c2)n(-c2ccc(OCCOC)nc2C)c(=O)n4C)cnc1C [Example 13.4, 8-(5-Ethylamino-6-methyl-pyridin-3-yl)-1-[6-(2-methoxy-ethoxy)-2-methyl-pyridin-3-yl]-3-methyl-1,3-dihydro-imidazo[4,5-c]quinolin-2-one]
IC50 [1]: < 4.57 nM | IC50 [2]: < 4.57 nM

COCCN(C)c1ccc(-n2c(=O)n(C)c3cnc4ccc(-c5cnc(N)c(C(F)(F)F)c5)cc4c32)c(C)n1 [Example 15.1, 8-(6-Amino-5-trifluoromethyl-pyridin-3-yl)-1-{6-[(2-methoxy-ethyl)-methyl-amino]-2-methyl-pyridin-3-yl}-3-methyl-1,3-dihydro-imidazo[4,5-c]quinolin-2-one]
IC50 [1]: 13.3 nM | IC50 [2]: 6.1 nM

COCC(=O)Nc1ccc(-n2c(=O)n(C)c3cnc4ccc(-c5cncc(N)c5)cc4c32)c(C)n1 [Example 20.1, N-{5-[8-(5-Amino-pyridin-3-yl)-3-methyl-2-oxo-2,3-dihydro-imidazo[4,5-c]quinolin-1-yl]-6-methyl-pyridin-2-yl}-2-methoxy-acetamide]
IC50 [1]: 194 nM | IC50 [2]: 170 nM

CCOc1cc(-c2ccc3ncc4c(c3c2)n(-c2cccnc2C)c(=O)n4C)cnc1C [Example 2.22, 8-(5-Ethoxy-6-methyl-pyridin-3-yl)-3-methyl-1-(2-methyl-pyridin-3-yl)-1,3-dihydro-imidazo[4,5-c]quinolin-2-one]
IC50 [1]: 75.7 nM | IC50 [2]: 22.5 nM

Cc1cc(F)ncc1-n1c(=O)n(C)c2cnc3ccc(-c4cnc(N)c(C(F)(F)F)c4)cc3c21 [Example 16.1, 8-(6-Amino-5-trifluoromethyl-pyridin-3-yl)-1-(6-fluoro-4-methyl-pyridin-3-yl)-3-methyl-1,3-dihydro-imidazo[4,5-c]quinolin-2-one]
IC50 [1]: 42.9 nM | IC50 [2]: 65.6 nM

CCOc1ccc(-c2ccc3ncc4c(c3c2)n(-c2ccc(NC(=O)COC)nc2C)c(=O)n4C)cn1 [Example 20.2, N-{5-[8-(6-Ethoxy-pyridin-3-yl)-3-methyl-2-oxo-2,3-dihydro-imidazo[4,5-c]quinolin-1-yl]-6-methyl-pyridin-2-yl}-2-methoxy-acetamide]
IC50 [1]: 326 nM | IC50 [2]: 210 nM

CCN(C)c1ccc(-n2c(=O)n(C)c3cnc4ccc(-c5ccc(NC)nc5)cc4c32)c(C)n1 [Example 12.1, 1-[6-(Ethyl-methyl-amino)-2-methyl-pyridin-3-yl]-3-methyl-8-(6-methylamino-pyridin-3-yl)-1,3-dihydro-imidazo[4,5-c]quinolin-2-one]
IC50 [1]: 45.7 nM | IC50 [2]: < 4.57 nM

COc1ccc(-n2c(=O)n(C)c3cnc4ccc(-c5cnc(CO)c(OC)c5)cc4c32)c(C)n1 [Example 11.8, 8-(6-Hydroxymethyl-5-methoxy-pyridin-3-yl)-1-(6-methoxy-2-methyl-pyridin-3-yl)-3-methyl-1,3-dihydro-imidazo[4,5-c]quinolin-2-one]
IC50 [1]: 114 nM | IC50 [2]: 31.1 nM

COCCOc1ccc(-n2c(=O)n(C)c3cnc4ccc(-c5cnc(COC)c(OC)c5)cc4c32)c(C)n1 [Example 22.3, 1-[6-(2-Methoxy-ethoxy)-2-methyl-pyridin-3-yl]-8-(5-methoxy-6-methoxymethyl-pyridin-3-yl)-3-methyl-1,3-dihydro-imidazo[4,5-c]quinolin-2-one]
IC50 [1]: 210 nM | IC50 [2]: 77.6 nM

— patent US20100311714A1, “1H-IMIDAZO[4,5-c]QUINOLINONE COMPOUNDS” (priority 2009, published 2010)
